Assay results taken from ChEMBL document CHEMBL1201862, “PubChem BioAssay data set” (2004).
Activity calls are given as the source filed them.

Legend:
[1] = inhibitors of Ran–importin-beta complex, dose response, biochemical, plate reader, dry powder (AID 493048); set-up: species or system Homo sapiens
[2] = target: T1, Short transient receptor potential channel 4 (Mus musculus, UniProt Q9QUQ5); experiment: TRPC4 positive allosteric modulators, dose response, cell-based, HEK293 TRPC4/mu-opioid, Fluo-4 calcium, EC20 DAMGO (AID 434941); type: functional
T1 sequence (Q9QUQ5 whole entry): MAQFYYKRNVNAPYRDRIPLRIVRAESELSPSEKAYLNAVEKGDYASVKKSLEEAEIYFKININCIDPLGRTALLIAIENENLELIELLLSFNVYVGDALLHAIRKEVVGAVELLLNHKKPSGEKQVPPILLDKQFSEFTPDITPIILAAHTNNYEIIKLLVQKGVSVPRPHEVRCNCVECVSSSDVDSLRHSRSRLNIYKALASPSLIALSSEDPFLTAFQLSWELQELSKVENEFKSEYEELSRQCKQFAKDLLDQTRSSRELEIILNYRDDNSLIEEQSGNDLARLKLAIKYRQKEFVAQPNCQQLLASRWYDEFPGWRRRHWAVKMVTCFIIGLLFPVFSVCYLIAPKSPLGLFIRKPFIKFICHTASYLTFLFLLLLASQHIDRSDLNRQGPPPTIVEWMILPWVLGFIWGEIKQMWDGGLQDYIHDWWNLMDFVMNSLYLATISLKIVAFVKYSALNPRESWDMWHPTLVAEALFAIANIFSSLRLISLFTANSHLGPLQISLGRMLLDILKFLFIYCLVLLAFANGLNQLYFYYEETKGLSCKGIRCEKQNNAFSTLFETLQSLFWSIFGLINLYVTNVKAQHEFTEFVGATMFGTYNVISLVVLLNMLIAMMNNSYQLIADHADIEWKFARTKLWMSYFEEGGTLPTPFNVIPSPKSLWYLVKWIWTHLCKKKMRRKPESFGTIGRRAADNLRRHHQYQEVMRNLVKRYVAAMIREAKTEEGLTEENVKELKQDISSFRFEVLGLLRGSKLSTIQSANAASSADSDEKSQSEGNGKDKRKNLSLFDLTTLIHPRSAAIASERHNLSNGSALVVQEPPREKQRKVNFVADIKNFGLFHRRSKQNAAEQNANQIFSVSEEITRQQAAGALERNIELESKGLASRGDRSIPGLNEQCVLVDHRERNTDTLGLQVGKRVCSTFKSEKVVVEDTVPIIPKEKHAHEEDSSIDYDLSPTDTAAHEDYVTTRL

Trypsin = Trypsin (Sus scrofa, UniProt P00761); experiment: porcine trypsin inhibitors, dose response, selectivity assay for Rce1 protease inhibitor project, biochemical, quenched peptide fluorescence, cherry-pick (AID 488789)
Trypsin, sequence (P00761 whole entry): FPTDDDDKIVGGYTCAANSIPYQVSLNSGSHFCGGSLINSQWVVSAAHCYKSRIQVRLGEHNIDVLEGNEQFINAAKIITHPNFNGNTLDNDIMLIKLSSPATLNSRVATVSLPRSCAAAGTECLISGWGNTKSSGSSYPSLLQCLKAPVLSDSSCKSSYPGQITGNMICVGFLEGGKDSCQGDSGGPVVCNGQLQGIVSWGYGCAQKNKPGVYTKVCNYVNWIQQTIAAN

Vero [3] = experiment: host cell cytotoxicity of antiviral hits, dose response, cytotoxicity control for West Nile virus antiviral project, secondary assay (AID 1650); type: functional; settings: Chlorocebus sabaeus
Vero [4] = experiment: cytotoxicity of synthesized analogs in Vero 76, SAR follow-up, cytotoxicity control for West Nile virus antiviral project, Vero 76 cells (AID 2414); type: functional; settings: Chlorocebus sabaeus
Vero [5] = experiment: West Nile virus antiviral activity, cell-based, CPE readout (AID 1621); type: functional; settings: Chlorocebus sabaeus
Vero [6] = experiment: Vero E6 cell cytotoxicity, SAR follow-up, cytotoxicity control for West Nile virus antiviral project, synthesized analogs (AID 2244); type: functional; settings: Chlorocebus sabaeus
Vero [7] = experiment: West Nile virus CPE inhibition, SAR follow-up, cell-based, synthesized analogs (AID 2238); type: functional; settings: Chlorocebus sabaeus
Vero [8] = experiment: cytotoxicity of synthesized analogs in Vero cells, SAR follow-up, cytotoxicity control for West Nile virus antiviral project, cell-based, set II (AID 2402); type: functional; settings: Chlorocebus sabaeus
[9] = A Cell Based Assay for the Identification of Probe candidate Compounds with Anti- Venezuelan Equine Encephalitis virus. [Related pubchem assays: 2409, 2419, 1621, 2238, 2405, 2024, 2065, 2402, 2414, 1635, 1650, 2244 ]; type: functional
[10] = target: G-protein coupled receptor 55 (Homo sapiens, UniProt Q9Y2T6); experiment: GPR55 agonists via beta-arrestin recruitment, primary screen, imaging, U2OS cells, beta-arrestin-GFP redistribution (AID 1961); type: functional
G-protein coupled receptor 55, sequence (Q9Y2T6 whole entry): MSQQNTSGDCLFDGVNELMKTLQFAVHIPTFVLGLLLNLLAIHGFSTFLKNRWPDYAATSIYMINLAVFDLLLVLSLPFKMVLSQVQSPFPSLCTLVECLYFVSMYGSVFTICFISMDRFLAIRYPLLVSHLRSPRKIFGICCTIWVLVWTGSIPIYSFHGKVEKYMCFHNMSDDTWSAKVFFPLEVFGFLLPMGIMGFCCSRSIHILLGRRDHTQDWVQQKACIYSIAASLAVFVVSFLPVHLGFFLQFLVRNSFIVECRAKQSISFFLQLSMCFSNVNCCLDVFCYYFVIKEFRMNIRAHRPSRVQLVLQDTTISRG

[11] = target: Alkaline phosphatase, placental type (Homo sapiens, UniProt P05187); experiment: PLAP enzyme inhibitors, confirmation, biochemical, luminescence (AID 1512); type: functional
Alkaline phosphatase, placental type, sequence (P05187 whole entry): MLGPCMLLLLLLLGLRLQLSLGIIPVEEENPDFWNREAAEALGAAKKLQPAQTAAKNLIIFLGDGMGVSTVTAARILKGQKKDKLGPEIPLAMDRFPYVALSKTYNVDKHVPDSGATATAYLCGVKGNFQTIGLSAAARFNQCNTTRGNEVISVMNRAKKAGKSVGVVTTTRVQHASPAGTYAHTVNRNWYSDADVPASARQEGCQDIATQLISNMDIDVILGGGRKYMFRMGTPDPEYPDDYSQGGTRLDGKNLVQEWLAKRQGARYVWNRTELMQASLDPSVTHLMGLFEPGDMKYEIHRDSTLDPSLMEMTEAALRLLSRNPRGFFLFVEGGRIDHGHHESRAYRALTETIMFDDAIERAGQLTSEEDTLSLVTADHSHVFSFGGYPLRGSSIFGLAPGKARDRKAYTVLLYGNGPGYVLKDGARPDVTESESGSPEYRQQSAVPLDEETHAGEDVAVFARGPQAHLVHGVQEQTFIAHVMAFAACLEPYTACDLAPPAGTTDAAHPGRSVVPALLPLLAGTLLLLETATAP

[12] = target: T2, Tyrosine-protein phosphatase non-receptor type 7 (Homo sapiens, UniProt P35236); experiment: SAR analysis of chemical inhibitors of HePTP using a Fluorescent assay - Set 2. [Related pubchem assays (depositor defined):AID1059, AID1077, AID1661, AID2085, AID521]; type: functional
T2 sequence (P35236 whole entry): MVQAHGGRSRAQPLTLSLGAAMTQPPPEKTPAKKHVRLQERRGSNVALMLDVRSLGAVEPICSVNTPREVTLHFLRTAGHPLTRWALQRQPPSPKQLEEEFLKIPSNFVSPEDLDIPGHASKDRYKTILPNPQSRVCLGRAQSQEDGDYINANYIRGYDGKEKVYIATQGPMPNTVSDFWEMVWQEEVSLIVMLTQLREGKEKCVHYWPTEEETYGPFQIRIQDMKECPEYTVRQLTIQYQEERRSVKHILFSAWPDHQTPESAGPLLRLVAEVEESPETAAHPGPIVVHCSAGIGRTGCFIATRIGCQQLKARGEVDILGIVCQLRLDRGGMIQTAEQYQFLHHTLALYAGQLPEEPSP

[13] = target: Dual specificity protein phosphatase 3 (Homo sapiens, UniProt P51452); experiment: SAR VHR1 Fluorescent Assay for In Vitro dose response studies Set 2. [Related pubchem assays (depositor defined):AID1654, AID1661, AID1878]; type: functional
Dual specificity protein phosphatase 3, sequence (P51452 whole entry): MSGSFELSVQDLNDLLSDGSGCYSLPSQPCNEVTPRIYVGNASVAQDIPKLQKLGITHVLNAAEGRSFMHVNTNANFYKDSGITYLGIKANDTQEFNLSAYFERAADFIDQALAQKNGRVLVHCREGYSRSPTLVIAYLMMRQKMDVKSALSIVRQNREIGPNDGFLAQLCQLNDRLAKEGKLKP

Vero [14] = experiment: cells; type: functional, cell-based; settings: Chlorocebus sabaeus
Perilipin-1/ABHD5 = Perilipin-1/ABHD5 (Homo sapiens, UniProt O60240+Q8WTS1); experiment: Luminescence-based biochemical high throughput dose response assay for inhibitors of the interaction of the lipase co-activator protein, abhydrolase domain containing 5 (ABHD5) with perilipin-1 (PLIN1) (2K validation set). [Related pubchem assays (depositor defined):AID493027, AID493057]
[15] = target: 1-acylglycerol-3-phosphate O-acyltransferase ABHD5/Perilipin-5 (Homo sapiens, UniProt Q00G26+Q8WTS1); experiment: Luminescence-based biochemical high throughput dose response assay for inhibitors of the interaction of the lipase co-activator protein, abhydrolase domain containing 5 (ABHD5) with perilipin-5 (MLDP; PLIN5) (2K validation set). [Related pubchem assays (depositor defined):AID493035, AID493241]
1-acylglycerol-3-phosphate O-acyltransferase ABHD5/Perilipin-5, sequence (Q00G26 whole entry, the tested form may be a part): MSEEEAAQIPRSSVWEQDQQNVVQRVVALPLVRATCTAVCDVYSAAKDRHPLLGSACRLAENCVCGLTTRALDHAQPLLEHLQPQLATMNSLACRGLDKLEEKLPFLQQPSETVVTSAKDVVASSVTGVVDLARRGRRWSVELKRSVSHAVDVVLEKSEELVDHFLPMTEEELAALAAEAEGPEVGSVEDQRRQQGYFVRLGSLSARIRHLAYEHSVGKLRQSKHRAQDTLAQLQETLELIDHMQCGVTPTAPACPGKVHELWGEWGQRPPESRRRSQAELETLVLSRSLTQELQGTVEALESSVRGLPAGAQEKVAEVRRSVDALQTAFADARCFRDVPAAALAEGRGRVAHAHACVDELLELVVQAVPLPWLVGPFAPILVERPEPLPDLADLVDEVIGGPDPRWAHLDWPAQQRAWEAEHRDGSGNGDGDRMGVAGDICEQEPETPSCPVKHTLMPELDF
1-acylglycerol-3-phosphate O-acyltransferase ABHD5/Perilipin-5, sequence (Q8WTS1 whole entry, the tested form may be a part): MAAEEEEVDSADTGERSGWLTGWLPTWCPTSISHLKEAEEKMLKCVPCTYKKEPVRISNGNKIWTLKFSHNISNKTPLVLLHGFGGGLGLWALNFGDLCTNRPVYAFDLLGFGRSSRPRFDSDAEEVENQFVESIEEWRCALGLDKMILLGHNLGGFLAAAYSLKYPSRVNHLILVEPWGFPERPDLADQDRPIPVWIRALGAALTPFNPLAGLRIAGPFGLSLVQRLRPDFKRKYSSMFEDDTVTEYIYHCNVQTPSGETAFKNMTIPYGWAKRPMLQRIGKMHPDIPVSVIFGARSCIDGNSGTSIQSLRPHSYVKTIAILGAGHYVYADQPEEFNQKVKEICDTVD

[16] = HeLa cell cytotoxicity, dose response, cytotoxicity control for MgcRacGAP inhibitor project (AID 624300); type: functional
Vero [17] = experiment: cells; type: functional; settings: Chlorocebus sabaeus
[18] = target: C-C chemokine receptor type 6 (Homo sapiens, UniProt P51684); experiment: CCR6 receptor antagonists, dose response, cell-based, luminescent beta-arrestin readout (AID 504728); type: functional
C-C chemokine receptor type 6, sequence (P51684 whole entry): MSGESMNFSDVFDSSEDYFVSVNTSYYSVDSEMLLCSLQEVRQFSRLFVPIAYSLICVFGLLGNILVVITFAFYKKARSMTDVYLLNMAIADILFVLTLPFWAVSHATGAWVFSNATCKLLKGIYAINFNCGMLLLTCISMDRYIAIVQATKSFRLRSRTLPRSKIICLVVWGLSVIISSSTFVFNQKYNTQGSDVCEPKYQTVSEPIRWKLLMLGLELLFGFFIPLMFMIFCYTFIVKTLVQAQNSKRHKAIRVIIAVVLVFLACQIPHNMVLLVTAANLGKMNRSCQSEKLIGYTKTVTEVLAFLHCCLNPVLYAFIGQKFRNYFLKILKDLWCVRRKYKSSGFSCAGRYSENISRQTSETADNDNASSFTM

Beta-galactosidase = Beta-galactosidase (Escherichia coli, UniProt Q8VNN2); experiment: beta-galactosidase enzyme inhibitors and activators, dose response, artefact control for CCR6 antagonist project, biochemical, E. coli enzyme, set 3 (AID 504712); type: functional
Beta-galactosidase, sequence (Q8VNN2 whole entry): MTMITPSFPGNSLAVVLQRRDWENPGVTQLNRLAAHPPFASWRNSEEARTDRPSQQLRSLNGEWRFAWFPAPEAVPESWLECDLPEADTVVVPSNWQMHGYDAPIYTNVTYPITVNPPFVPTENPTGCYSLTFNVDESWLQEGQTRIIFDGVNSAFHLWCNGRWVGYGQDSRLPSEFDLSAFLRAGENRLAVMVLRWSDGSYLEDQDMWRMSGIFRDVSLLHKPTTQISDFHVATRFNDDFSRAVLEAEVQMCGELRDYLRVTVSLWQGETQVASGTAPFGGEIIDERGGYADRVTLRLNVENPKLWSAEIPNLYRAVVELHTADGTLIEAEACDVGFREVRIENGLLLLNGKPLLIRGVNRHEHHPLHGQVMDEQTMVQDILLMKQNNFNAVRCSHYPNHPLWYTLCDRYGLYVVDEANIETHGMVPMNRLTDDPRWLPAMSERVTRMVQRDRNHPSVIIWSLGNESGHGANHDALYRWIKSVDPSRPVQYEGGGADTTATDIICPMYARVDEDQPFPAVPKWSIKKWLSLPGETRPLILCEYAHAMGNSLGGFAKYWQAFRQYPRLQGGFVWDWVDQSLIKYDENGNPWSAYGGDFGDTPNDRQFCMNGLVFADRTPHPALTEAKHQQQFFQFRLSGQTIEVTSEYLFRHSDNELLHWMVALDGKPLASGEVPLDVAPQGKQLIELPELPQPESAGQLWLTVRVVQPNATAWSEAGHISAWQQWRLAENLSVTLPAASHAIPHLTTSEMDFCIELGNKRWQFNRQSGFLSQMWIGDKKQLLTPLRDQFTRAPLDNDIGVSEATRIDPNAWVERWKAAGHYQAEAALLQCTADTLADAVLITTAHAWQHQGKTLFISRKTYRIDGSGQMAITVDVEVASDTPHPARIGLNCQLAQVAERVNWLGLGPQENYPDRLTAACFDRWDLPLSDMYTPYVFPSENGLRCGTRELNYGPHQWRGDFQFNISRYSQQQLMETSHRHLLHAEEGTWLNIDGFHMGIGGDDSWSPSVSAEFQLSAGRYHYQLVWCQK

NS3 = NS3 (Hepatitis C virus, UniProt A3EZJ3); experiment: PubChem AID 2173; set-up: species or system Hepacivirus hominis
Neutrophil collagenase = Neutrophil collagenase (Homo sapiens, UniProt P22894); experiment: MMP13 inhibition and MMP selectivity, late-stage follow-up, selectivity assay for MMP13 inhibitor project, biochemical, probe development, late stage results, panel member MMP-8 [IC50 Assay] (AID 2067)
[19] = inhibitors of firefly luciferase expression or activity, dose response, H4 neuroglioma cells, luminescence (AID 1990); type: functional, cell-based
[20] = target: G-protein coupled receptor 35 (Homo sapiens, UniProt Q9HC97); experiment: GPR35 antagonists blocking zaprinast-driven arrestin recruitment, primary screen, imaging, U2OS, beta-arrestin-GFP, zaprinast agonist (AID 2058); type: functional;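 further: antagonist potency meaning inhibition of agonist-induced arrestin redistribution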
G-protein coupled receptor 35, sequence (Q9HC97 whole entry): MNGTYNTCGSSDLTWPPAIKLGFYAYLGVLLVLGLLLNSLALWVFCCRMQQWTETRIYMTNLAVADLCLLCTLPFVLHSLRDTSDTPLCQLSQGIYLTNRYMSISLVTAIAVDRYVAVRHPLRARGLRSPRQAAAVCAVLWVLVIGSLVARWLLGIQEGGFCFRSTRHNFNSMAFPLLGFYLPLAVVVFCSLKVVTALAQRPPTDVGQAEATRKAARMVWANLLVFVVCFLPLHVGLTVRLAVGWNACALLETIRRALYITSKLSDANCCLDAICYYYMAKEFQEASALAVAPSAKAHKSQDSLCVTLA

[21] = inhibitors of intracellular T. cruzi replication, confirmation, NIH3T3 host cells, beta-gal luminescence (AID 2044); type: functional, cell-based;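 further: intracellular parasites grown in NIH/3T3 mouse fibroblasts as host cells; luminescent beta-galactosidase reporter signal from transgenic T. cruzi replicating inside host cells; inhibitors lower the luminescence signal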
[22] = target: T3, Ubiquitin-conjugating enzyme E2 N (Homo sapiens, UniProt P61088); type: functional;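 further: Dose-response confirmation in a TR-FRET assay detecting UBC13-driven polyubiquitin chain formation, inhibition measured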
T3 sequence (P61088 whole entry): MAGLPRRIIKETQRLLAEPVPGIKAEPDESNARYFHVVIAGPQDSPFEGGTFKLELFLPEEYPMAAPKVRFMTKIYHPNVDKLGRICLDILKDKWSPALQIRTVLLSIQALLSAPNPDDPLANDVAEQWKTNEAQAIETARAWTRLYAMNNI

[23] = inhibitors of SNCA 5'UTR-driven reporter translation, confirmation, H4 neuroglioma cells, luminescence (AID 1988); type: functional, cell-based
[24] = cytotoxicity toward NIH3T3 fibroblasts, dose response, counter-screen, cell-based, ATP luminescence, mouse fibroblasts (AID 2010); type: functional;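 further: cells exposed to compound for about 90 hours before reading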
[25] = Luminescence Cell-Based Dose Response HTS to Identify Inhibitors of 5'UTR Stem-Loop Driven Prion Protein mRNA Translation in H4 Neuroglioblastoma Cells. [Related pubchem assays: 1827 (Project Summary), 1813 (Primary HTS)]; type: functional
Mu-type opioid receptor = Mu-type opioid receptor (Homo sapiens, UniProt P35372); experiment: SAR Analysis of Antagonists of the MOR Receptor using an Image-Based Assay - Set 3. [Related pubchem assays (depositor defined):AID1777, AID1785, AID1786, AID1966, AID2133, AID2136, AID2284, AID2285, AID2420]; type: functional
Mu-type opioid receptor, sequence (P35372 whole entry): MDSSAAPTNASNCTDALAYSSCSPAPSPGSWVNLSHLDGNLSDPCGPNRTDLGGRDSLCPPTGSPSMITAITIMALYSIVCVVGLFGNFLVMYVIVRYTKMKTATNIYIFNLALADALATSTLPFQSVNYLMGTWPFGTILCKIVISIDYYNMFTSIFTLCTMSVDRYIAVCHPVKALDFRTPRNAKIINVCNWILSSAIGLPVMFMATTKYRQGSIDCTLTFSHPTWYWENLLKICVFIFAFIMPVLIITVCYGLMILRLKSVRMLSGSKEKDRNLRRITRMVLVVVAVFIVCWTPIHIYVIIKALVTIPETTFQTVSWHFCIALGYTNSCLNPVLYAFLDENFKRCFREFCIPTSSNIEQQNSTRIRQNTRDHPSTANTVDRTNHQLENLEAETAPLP

[26] = target: T4, Kappa-type opioid receptor (Homo sapiens, UniProt P41145); experiment: SAR analysis of Antagonists of the Kappa Opioid Receptor (KOR) using an Image-Based Assay - Set 3. [Related pubchem assays (depositor defined):AID1777, AID1785]; type: functional
T4 sequence (P41145 whole entry): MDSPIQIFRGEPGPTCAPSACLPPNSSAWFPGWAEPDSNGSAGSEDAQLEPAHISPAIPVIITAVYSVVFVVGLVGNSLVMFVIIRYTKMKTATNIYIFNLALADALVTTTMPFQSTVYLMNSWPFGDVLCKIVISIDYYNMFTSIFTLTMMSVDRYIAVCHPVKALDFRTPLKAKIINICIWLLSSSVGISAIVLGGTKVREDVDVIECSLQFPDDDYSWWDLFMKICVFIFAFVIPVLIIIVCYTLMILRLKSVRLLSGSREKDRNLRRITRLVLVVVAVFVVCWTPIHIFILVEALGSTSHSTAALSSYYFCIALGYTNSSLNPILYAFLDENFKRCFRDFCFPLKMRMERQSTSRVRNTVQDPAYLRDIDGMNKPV

[27] = target: T4, Kappa-type opioid receptor; experiment: SAR analysis of small molecule antagonists of the kappa opioid receptor via a luminescent beta-arrestin assay - Set 3. [Related pubchem assays (depositor defined):AID1777, AID1778, AID1785, AID1786, AID1966, AID2133, AID2136, AID2285, AID2495]; type: functional
[28] = target: Delta-type opioid receptor (Homo sapiens, UniProt P41143); experiment: SAR Analysis of Antagonists of the DOR Receptor using an Image-Based Assay - Set 3. [Related pubchem assays (depositor defined):AID1777, AID1785]; type: functional;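 further: U2OS cells expressing DOR1 and beta-arrestin GFP stimulated with 100 nM SNC80; imaging of GFP-tagged beta-arrestin moving into spots after receptor activation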
Delta-type opioid receptor, sequence (P41143 whole entry): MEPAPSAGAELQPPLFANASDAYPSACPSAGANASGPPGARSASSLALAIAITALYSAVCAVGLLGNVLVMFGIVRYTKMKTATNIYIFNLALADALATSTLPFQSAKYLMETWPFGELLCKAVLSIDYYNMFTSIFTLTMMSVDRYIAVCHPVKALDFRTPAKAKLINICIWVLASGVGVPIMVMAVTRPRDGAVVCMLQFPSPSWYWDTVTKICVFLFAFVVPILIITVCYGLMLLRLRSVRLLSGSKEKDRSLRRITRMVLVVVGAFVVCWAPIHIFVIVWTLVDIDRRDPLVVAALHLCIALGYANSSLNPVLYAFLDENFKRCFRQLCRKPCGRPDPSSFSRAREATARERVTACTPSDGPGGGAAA

[29] = target: Scavenger receptor class B member 1 (Mus musculus, UniProt Q61009); experiment: inhibitors of SR-BI mediated HDL lipid uptake, dose response, ldlA[mSR-BI] cells, fluorescence, cherry pick (AID 493194); type: functional, cell-based;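 further: cellular uptake of fluorescent DiI-labeled HDL measured as cell fluorescence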

COCCNC(=O)/C(C#N)=C/c1cn(CC(=O)NCc2ccco2)c2ccccc12
AC50 [1]: 174 µM (active)

O=C(NCc1ccccc1)C1=C[C@H](c2ccc(C(F)(F)F)cc2)C[C@H](OCc2ccc(CO)cc2)O1
EC50 [2]: 5.96 µM (active)

COCc1c(Br)c(C)nc(O)c1C#N
AC50 (Trypsin): 72.8 µM (active)

CC1CCN(CCCNC(=O)c2cc3c(s2)-c2ccccc2OC3)CC1
CC50 (Vero [3]): > 100 µM (active) | CC50 (Vero [4]): > 66.6 µM (active) | IC50 (Vero [5]): 25.1 µM (active) | CC50 (Vero [6]): 26.2 µM (active) | IC50 (Vero [7]): > 40 µM (active) | CC50 (Vero [8]): 19.5 µM (active) | IC50 [9]: 18.2 µM (active)

CC(C)C[C@@H](CSc1ccc(Br)cc1)N1CCN(CCc2ccccc2)CCC1=O
EC50 [10]: 7.59 µM (active)

Cc1ccc(C)c(NC(S)=NNC(=O)c2ccc(Br)o2)c1
IC50 [11]: > 100 µM (inactive) | IC50 [12]: > 100 µM (inactive) | IC50 [13]: > 100 µM (inactive)

COC(=O)C1=C(C)N(Cc2ccco2)C(=O)/C1=C\c1ccc([N+](=O)[O-])cc1
IC50 (Vero [14]): > 25 µM (active) | IC50 (Perilipin-1/ABHD5): 2.07 µM (active) | IC50 [15]: 2.27 µM (active) | CC50 [16]: 62.9 µM (active) | CC50 (Vero [17]): 17.6 µM (active)

Cc1ccc(C(CCN(Cc2ccccc2)C(=O)c2ccco2)c2ccco2)cc1 (stereo unspecified)
IC50 [18]: > 66.6 µM (inactive) | IC50 (Beta-galactosidase): > 66.6 µM (inactive) | IC50 (NS3): 8.82 µM (active)

COC(=O)c1ccc(CSc2nc3c(c(=O)[nH]2)CCC3)cc1
IC50 (Neutrophil collagenase): > 39.8 µM (inactive)

CCN(CC)CCCNc1ccc(-c2nnc(-c3ccc(OCC(C)C)cc3)o2)cn1
EC50 [19]: > 120 µM (not active) | IC50 [20]: 1.96 µM (active) | EC50 [21]: < 0.1 µM (active) | IC50 [22]: > 20 µM (inactive) | EC50 [23]: > 30 µM (not active) | EC50 [24]: 4.75 µM (active) | EC50 (cells): 0.394 µM (active) | EC50 [25]: 13.5 µM (active)

O=C(Cn1c(=O)c2cccn2c2ccccc21)NCCCN1CCN(Cc2ccccc2)CC1
IC50 (Mu-type opioid receptor): > 32 µM (inactive) | IC50 [26]: > 32 µM (inactive) | IC50 [27]: > 20 µM (inactive) | IC50 [28]: > 32 µM (inactive)

Cc1cccc(N2CCN(C(=O)CN3C(=O)NC4(CCCCCC4)C3=O)CC2)c1C
AC50 [29]: 47.4 µM (active)
